Test results as given in publication PMC7349888, “Synthesis and Evaluation of Dodecaboranethiol Containing Kojic Acid (KA-BSH) as a Novel Agent for Boron Neutron Capture Therapy” (Cells, 2020).
Several values for one entry are separate records, joined by “and”; a condition that tells them apart may be missing. Equal values may be shown once.

How the values were obtained:
[1] = test system: F98 glioma bearing rats; test: Biodistribution in F98 glioma bearing rats (ICP-AES); format: in vivo, rat; conditions: iv
From the text: (§1) All animal experimental procedures were approved by the Animal Use Review Board and Ethical Committee of Osaka Medical College (No. 25092, 28 October 2015) and Kyoto University Research Reactor Institute (KURRI, No. 25030-13, 1 April 2015), and performed following the Guide for the Care and Use of Laboratory Animals. Eight-week-old, male Fischer 344 rats weighing between 200 and 250 g were used (Japan SLC, Inc. Shizuoka, Japan). Rats were anesthetized with an intraperitoneal (ip) injection of a mixture of medetomidine 0.15 mg, midazolam 2 mg, and butorphanol 2.5 mg/kg body weight (bw). The head of each rat was fixed with a stereotactic frame (Model 900; David Kopf Instruments, Tujunga, CA, USA). The scalp was incised at the midline and a small burr hole was drilled into the skull (1 mm posterior and 4 mm right-lateral to the bregma), using an electric drill. And then, F98 glioma cells were injected into the brain using a 25 µL Hamilton microsyringe with a 26-gauge needle (model 1700 RN, Hamilton Bonaduz AG, Bonaduz, Switzerland). The needle was inserted at a 5 mm depth from the skull and F98 cells were diluted in 10 µL of DMEM containing low-gelling temperature agarose at a concentration of either 10^3 for therapeutic experiments or 10^5 cells for biodistribution experiments. They were injected over 30 s using an automatic infuser pump. The needle entry hole was immediately sealed with bone wax and the incised scalp was closed with 3-0 silk sutures (Ethicon, North Ryde, NSW). After surgery, all animals were given atipamezole hydrochloride (0.15 mg/kg bw, ip).
Biodistribution studies were performed in Fischer rats bearing intracerebral implants of F98 rat glioma cells. 10–13 days after tumor implantation of 10^5 F98 glioma cells, when signs of a progressively growing tumor were evident (weight loss, lethargy, hunching, and ataxia), biodistribution studies were initiated at which time the animals had tumors weighing 90–180 mg. […] To compare its biodistribution with that of BPA or BSH, another group of rats received an iv injection of BPA at a concentration of 10 mg ^10B/kg bw or BSH at a concentration of 30 mg ^10B/kg bw. Biodistribution was determined 1 and 3 h after termination of iv injection. Animals were euthanized by an overdose of sevoflurane following which tumors and normal tissues, consisting of ipsilateral brain, contralateral brain, blood, heart, lung, liver, spleen, kidney, skin, and muscle, were removed and weighed for ^10B determination by ICP-AES.

[2] = test system: F98 glioma bearing rats; test: In vivo BNCT therapeutic experiment, neutron irradiation at KURRI; parameters: species or system rat
From the text: as §1, with “After surgery, all animals were given atipamezole hydrochloride (0.15 mg/kg bw, ip).” left out
Therapeutic experiments for BNCT were performed 14 days after stereotactic implantation of 10^3 F98 glioma cells. […] The therapeutic effect of BNCT was evaluated by the survival time of the animals. […]
The means and standard deviations (SD) were computed for ^10B concentrations of F98 glioma cells and tissues of Fischer rats bearing intracerebral implants of the F98 glioma. […] Statistical differences between means were calculated using the Student’s unpaired t-test. In therapeutic experiments, the median survival time (MST) was calculated for each group using the Kaplan–Meier estimate. […]

[3] = 10 mg 10B/kg iv, BNCT 1 h after administration

## S-(2-(5-hydroxy-4-oxo-4H-pyran-2-yl) methyl) Thioundecahydro-Closo- Dodecaborate (2-) Disodium Salt [KA-BSH]
[1]; 10 mg 10B/kg, 1 h
  10B concentration, Blood: 4.71 µg 10B/g
  10B concentration, Contralateral brain: 0.24 µg 10B/g
  10B concentration, Heart: 1.18 µg 10B/g
  10B concentration, Ipsilateral brain: 0.29 µg 10B/g
  10B concentration, Liver: 5.15 µg 10B/g
  10B concentration, Lung: 4.31 µg 10B/g
  10B concentration, Muscle: 0.63 µg 10B/g
  10B concentration, Skin: 1.79 µg 10B/g
  10B concentration, Spleen: 14.34 µg 10B/g
  10B concentration, Tumor: 1.42 µg 10B/g and 1.42 ± 0.28 µg 10B/g
  T/Bl (tumor to blood ratio): 0.31
  T/Br (tumor to normal contralateral brain ratio): 5.99
[1]; 10 mg 10B/kg, 3 h
  10B concentration, Blood: 1.26 µg 10B/g
  10B concentration, Contralateral brain: 0.09 µg 10B/g
  10B concentration, Heart: 0.29 µg 10B/g
  10B concentration, Ipsilateral brain: 0.10 µg 10B/g
  10B concentration, Liver: 4.13 µg 10B/g
  10B concentration, Lung: 0.74 µg 10B/g
  10B concentration, Muscle: 0.19 µg 10B/g
  10B concentration, Skin: 0.45 µg 10B/g
  10B concentration, Spleen: 16.07 µg 10B/g
  10B concentration, Tumor: 0.85 µg 10B/g
  T/Bl (tumor to blood ratio): 0.69
  T/Br (tumor to normal contralateral brain ratio): 9.52
[1]; 20 mg 10B/kg, 1 h
  10B concentration, Blood: 8.76 µg 10B/g
  10B concentration, Contralateral brain: 0.24 µg 10B/g
  10B concentration, Heart: 2.10 µg 10B/g
  10B concentration, Ipsilateral brain: 0.31 µg 10B/g
  10B concentration, Liver: 10.25 µg 10B/g
  10B concentration, Lung: 6.11 µg 10B/g
  10B concentration, Muscle: 2.35 µg 10B/g
  10B concentration, Skin: 3.56 µg 10B/g
  10B concentration, Spleen: 10.30 µg 10B/g
  10B concentration, Tumor: 2.96 µg 10B/g
  T/Bl (tumor to blood ratio): 0.34
  T/Br (tumor to normal contralateral brain ratio): 13.21
[1]; 20 mg 10B/kg, 3 h
  10B concentration, Blood: 1.54 µg 10B/g
  10B concentration, Contralateral brain: 0.09 µg 10B/g
  10B concentration, Heart: 0.39 µg 10B/g
  10B concentration, Ipsilateral brain: 0.14 µg 10B/g
  10B concentration, Liver: 5.40 µg 10B/g
  10B concentration, Lung: 1.37 µg 10B/g
  10B concentration, Muscle: 0.24 µg 10B/g
  10B concentration, Skin: 0.57 µg 10B/g
  10B concentration, Spleen: 8.44 µg 10B/g
  10B concentration, Tumor: 1.47 µg 10B/g
  T/Bl (tumor to blood ratio): 1.12
  T/Br (tumor to normal contralateral brain ratio): 21.07
[1]; 30 mg 10B/kg, 1 h
  10B concentration in blood: 14.21 ± 3.17 µg/mL
  10B concentration, Blood: 14.21 µg 10B/g
  10B concentration, Contralateral brain: 0.45 µg 10B/g
  10B concentration, Heart: 3.45 µg 10B/g
  10B concentration, Ipsilateral brain: 0.63 µg 10B/g
  10B concentration, Liver: 10.33 ± 2.61 µg 10B/g and 10.33 µg 10B/g
  10B concentration, Lung: 9.27 µg 10B/g
  10B concentration, Muscle: 2.26 µg 10B/g
  10B concentration, Skin: 7.25 µg 10B/g
  10B concentration, Spleen: 3.77 µg 10B/g
  10B concentration, Tumor: 6.65 µg 10B/g and 6.65 ± 0.25 µg 10B/g
  T/Bl (tumor to blood ratio): 0.49
  T/Br (tumor to normal contralateral brain ratio): 15.27
[1]; 30 mg 10B/kg, 3 h
  10B concentration in blood: 2.35 ± 1.37 µg/mL
  10B concentration, Blood: 2.35 µg 10B/g
  10B concentration, Contralateral brain: 0.14 µg 10B/g
  10B concentration, Heart: 0.56 µg 10B/g
  10B concentration, Ipsilateral brain: 0.35 µg 10B/g
  10B concentration, Liver: 4.19 ± 1.79 µg 10B/g and 4.19 µg 10B/g
  10B concentration, Lung: 2.26 µg 10B/g
  10B concentration, Muscle: 0.32 µg 10B/g
  10B concentration, Skin: 1.06 µg 10B/g
  10B concentration, Spleen: 5.68 µg 10B/g
  10B concentration, Tumor: 2.91 µg 10B/g
  T/Bl (tumor to blood ratio): 1.58
  T/Br (tumor to normal contralateral brain ratio): 23.09
[1]; 1 vs 3 h
  clearance from normal tissues: rapid clearance from normal tissues
[1]; 1 h, used for dose estimation
  10B Concentrations, Brain (Table 1): 0.3 μg 10B/g
  10B Concentrations, Tumor (Table 1): 1.4 μg 10B/g
[2]; [3]
  Survival Time, Median (MST): 36.0 days
  Survival Time, Range: 32 – 38
[2]; relative to median survival time of untreated controls
  %ILS Median (percent increase life span): 22.0%
